Laboratory results from patent publication US11371022B2, “Blood-brain barrier endothelial cells derived from pluripotent stem cells for blood-brain barrier models” (PRESIDENT AND FELLOWS OF HARVARD COLLEGE, priority 2016, dated 2022).

What was measured:
[1] = test system: efflux pump; test: DiOC2 permeability test of efflux pump function in BBB chip; format: in vitro ADME, human; conditions: hypoxia stimulation vs normoxia BBB chip; FIG. 9B
Description: FIGS. 9A-9C are bar graphs showing the inhibition of the efflux transporter in control and hypoxic stimulated BBB chips by verapamil, MK-571 or KO143. […] All inhibitor-treated samples were independently normalized to the corresponding mock control.
A non-limiting example of assembling a BBB model in a microfluidic chip having flow, using the hypoxia differentiated PSCs-to-BMVECs is as follows. To assemble the BBB model on microfluidic chips, polydimethylsiloxane (PDMS) microfluidic chip was plasma treated (0.5 mbar, 50 W, 2 min) and coated with 0.01% poly-L-lysine solution for 1 hour. Subsequently, 400 ug/ml collagen IV and 100 μg/ml fibronectin were treated to microfluidic chips and incubated overnight in normal cell culture condition (37 C, 5% CO2, 20% O2). A day after coating, ECM solution was rinsed with EC+RA medium. The harvested astrocytes and pericytes were resuspended at 0.7 and 0.3 million cells/mL in EC+RA medium. Mixture of cells was seeded on apical micro-channel, and placed in incubator for 1 hour allowing the cells to adhere to membrane. The differentiated BMVECs on 6-cm plastic culture dish were dissociated using Accutase, harvested, and resuspended 25 million cells/mL in degassed EC+RA media. The differentiated BMVECs were seeded on basal micro-channel, and flip the entire PDMS chip upside down in petri dish to allow the BMVEC to attach to the membrane. […]

[2] = target: T1, ABCB1 (Homo sapiens, UniProt P08183); test: Doxorubicin permeability across BBB chip with or without verapamil (efflux pump inhibition); format: in vitro ADME; conditions: FIG. 9C
T1 construct: The BBB model chip comprises iPSC-derived, hypoxia-stimulated or -differentiated BMVECs; endogenous in cells; host or cells: human iPSC (IMR90-4)-derived brain microvascular endothelial cells, co-cultured with astrocytes and pericytes on a microfluidic chip
T1 sequence (P08183 whole entry): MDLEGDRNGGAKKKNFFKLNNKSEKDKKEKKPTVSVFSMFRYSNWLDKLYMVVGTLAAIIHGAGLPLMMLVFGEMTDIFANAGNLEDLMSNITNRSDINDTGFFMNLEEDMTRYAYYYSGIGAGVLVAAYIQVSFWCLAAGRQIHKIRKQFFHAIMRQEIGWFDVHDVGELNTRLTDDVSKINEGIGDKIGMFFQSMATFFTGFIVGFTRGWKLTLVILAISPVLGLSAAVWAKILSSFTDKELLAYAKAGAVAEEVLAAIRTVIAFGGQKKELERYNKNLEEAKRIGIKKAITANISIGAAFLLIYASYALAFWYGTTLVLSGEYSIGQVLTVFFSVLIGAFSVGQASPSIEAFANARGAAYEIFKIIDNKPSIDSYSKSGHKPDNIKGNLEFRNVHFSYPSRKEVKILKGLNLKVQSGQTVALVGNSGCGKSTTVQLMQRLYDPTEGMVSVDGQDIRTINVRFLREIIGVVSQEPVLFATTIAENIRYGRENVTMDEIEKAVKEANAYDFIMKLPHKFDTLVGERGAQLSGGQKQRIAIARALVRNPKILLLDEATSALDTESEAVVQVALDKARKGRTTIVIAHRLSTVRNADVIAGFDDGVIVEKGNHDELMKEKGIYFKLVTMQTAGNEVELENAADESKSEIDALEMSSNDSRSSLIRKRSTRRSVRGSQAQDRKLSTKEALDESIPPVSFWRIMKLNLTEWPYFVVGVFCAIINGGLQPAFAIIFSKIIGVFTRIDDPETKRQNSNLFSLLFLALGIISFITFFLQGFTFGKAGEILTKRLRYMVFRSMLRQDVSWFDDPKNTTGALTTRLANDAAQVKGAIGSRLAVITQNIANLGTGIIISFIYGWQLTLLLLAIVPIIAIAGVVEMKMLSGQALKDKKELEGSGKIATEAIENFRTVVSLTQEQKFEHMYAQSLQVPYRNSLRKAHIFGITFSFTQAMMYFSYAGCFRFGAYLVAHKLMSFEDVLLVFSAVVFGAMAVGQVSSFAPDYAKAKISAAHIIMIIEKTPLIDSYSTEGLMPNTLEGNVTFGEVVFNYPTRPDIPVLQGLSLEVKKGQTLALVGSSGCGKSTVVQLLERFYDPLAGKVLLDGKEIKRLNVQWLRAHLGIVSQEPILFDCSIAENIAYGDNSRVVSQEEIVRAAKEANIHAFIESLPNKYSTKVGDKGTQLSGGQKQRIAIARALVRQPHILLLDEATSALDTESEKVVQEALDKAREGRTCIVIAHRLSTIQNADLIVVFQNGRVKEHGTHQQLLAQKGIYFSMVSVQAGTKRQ
Description: Doxorubicin is known as a substrate of ABCB1.

[3] = target: T2, ABCB (P-gp) (Homo sapiens, UniProt P08183); conditions: iPS-derived BMVEC generated using published protocol, in vitro; cited from earlier work
T2 construct: host or cells: iPS-derived BMVEC (published protocol)
T2 sequence (P08183 whole entry): as above

[4] = target: T3, ABCB (P-gp) (Mus musculus, UniProt P21447); conditions: cited from earlier work
T3 construct: compared to in vivo efflux ratios (2.4-fold) (Cell, 1994, 77, 4)
T3 sequence (P21447 whole entry): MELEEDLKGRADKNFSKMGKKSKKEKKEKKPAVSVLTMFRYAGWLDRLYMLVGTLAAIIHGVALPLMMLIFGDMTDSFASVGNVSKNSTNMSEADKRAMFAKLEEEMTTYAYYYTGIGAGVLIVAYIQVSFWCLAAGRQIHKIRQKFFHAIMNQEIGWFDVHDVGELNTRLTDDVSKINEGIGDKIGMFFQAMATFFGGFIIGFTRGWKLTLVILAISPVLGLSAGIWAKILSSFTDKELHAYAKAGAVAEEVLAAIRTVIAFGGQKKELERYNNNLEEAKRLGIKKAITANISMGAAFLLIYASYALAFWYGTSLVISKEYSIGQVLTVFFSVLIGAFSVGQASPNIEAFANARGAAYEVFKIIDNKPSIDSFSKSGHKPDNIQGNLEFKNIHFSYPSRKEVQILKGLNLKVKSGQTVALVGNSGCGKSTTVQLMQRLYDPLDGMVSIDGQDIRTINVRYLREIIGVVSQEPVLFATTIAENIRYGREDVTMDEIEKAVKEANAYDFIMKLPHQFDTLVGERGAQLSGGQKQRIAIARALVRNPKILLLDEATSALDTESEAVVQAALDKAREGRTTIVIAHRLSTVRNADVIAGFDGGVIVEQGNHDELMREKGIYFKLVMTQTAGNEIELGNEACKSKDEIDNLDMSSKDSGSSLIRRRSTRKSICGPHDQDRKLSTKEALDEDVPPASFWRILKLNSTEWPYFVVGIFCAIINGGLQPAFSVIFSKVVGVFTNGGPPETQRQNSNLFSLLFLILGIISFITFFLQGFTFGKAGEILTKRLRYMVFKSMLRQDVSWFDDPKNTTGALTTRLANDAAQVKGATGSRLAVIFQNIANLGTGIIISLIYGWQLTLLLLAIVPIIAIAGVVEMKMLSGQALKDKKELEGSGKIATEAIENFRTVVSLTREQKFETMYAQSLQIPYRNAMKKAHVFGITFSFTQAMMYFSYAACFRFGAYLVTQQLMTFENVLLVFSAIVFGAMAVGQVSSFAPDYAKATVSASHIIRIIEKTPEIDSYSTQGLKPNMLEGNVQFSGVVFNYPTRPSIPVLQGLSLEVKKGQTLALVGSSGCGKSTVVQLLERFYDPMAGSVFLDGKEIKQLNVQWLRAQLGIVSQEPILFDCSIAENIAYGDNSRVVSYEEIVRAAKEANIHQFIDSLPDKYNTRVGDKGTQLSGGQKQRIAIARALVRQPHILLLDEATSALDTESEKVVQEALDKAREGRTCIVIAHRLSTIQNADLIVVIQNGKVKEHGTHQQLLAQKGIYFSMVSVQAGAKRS

Compound | efflux pump function in DiO2 test [1] | doxorubicin permeability, increase by verapamil treatment ([2]; hypoxia BBB chip, verapamil (ABCB1 inhibitor) vs mock control) [fold] | change of doxorubicin BBB penetration by verapamil ([2]; normoxia control BBB chip) | efflux ratio [3] [fold] | in vivo efflux ratios [4] [fold]
CCN1/C(=C/C=C/c2oc3ccccc3[n+]2CC)Oc2ccccc21.[I-] [DiO2] | enhanced efflux pump function |  |  |  | 
COc1cccc2c1C(=O)c1c(O)c3c(c(O)c1C2=O)C[C@@](O)(C(=O)CO)C[C@@H]3O[C@H]1C[C@H](N)[C@H](O)[C@H](C)O1 [Doxorubicin, doxorubicin] |  | 2.7 | did not show significant change | 1.3 | 2.4
